Assay results reported in patent US11390609B2, “Rho-associated protein kinase inhibitor, pharmaceutical composition comprising same, and preparation method and use thereof” (BEIJING TIDE PHARMACEUTICAL CO., LTD., priority 2017, dated 2022).

Columns and labels:
[1] = target: ROCK2 (Homo sapiens, UniProt O75116); experiment: ROCK2 kinase IC50 assay (CISBIO HTRF KinEASE-STK S2 kit); format: biochemical; details: incubated at room temperature for 2 hours
In short: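 HTRF KinEASE-STK S2 format with recombinant ROCK2 (1.4 ng per well), STK-S2 substrate and ATP from 5× working solutions of 1.5 μM each, run 2 h at room temperature. Nine-point dilutions from 10000 nM top concentration; 665/615 nm emission ratio normalised to no-compound and no-kinase controls, curve-fitted for IC50.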

[2] = target: ROCK1 (Homo sapiens (Human), UniProt Q13464); experiment: ROCK1 kinase IC50 assay (biological test method similar to the ROCK2 assay); format: biochemical
ROCK1, sequence (Q13464 whole entry, species assumed): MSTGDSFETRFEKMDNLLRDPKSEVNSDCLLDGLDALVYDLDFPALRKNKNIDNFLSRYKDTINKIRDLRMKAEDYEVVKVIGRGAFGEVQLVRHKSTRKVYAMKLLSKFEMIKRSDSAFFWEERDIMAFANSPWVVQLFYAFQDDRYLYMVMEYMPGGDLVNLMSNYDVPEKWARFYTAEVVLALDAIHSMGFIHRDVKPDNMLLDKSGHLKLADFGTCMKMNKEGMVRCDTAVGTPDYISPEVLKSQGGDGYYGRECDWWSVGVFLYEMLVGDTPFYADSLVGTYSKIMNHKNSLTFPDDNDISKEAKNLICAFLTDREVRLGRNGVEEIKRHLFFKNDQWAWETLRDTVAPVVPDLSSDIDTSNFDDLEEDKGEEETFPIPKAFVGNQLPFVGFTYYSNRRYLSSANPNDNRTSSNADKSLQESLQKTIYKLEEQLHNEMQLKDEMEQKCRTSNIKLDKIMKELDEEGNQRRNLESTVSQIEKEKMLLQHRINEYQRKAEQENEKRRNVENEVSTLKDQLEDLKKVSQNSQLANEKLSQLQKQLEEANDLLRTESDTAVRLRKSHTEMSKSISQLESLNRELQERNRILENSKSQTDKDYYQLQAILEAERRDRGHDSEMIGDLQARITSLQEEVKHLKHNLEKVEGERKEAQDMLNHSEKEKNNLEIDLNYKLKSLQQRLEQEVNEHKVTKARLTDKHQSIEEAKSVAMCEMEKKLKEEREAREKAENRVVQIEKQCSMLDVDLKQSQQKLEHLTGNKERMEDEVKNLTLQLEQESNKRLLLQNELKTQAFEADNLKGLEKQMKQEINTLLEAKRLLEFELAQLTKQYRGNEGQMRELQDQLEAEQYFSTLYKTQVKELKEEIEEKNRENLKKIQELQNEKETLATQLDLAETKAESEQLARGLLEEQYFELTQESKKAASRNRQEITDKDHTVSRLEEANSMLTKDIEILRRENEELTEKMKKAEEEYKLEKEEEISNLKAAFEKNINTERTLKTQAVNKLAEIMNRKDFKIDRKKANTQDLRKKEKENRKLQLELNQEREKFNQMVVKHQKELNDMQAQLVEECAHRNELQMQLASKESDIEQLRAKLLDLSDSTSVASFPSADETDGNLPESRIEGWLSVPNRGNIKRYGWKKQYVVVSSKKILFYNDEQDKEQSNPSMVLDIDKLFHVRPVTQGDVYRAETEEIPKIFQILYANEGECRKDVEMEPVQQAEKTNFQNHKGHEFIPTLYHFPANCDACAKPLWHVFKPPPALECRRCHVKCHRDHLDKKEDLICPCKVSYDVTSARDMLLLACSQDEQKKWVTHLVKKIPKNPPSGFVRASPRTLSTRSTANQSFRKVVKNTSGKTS
In short: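 Compound dilution series (9 concentrations, top solution 10000 nM, DMSO-containing buffer) incubated 2 h at room temperature with kinase, STK-S2 substrate and ATP (5× working solutions of 1.5 µM each). Phosphorylation detected by HTRF (665/615 nm emission ratio) after 1 h; inhibition relative to full-reaction and kinase-free wells, fitted for IC50.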

Row | IC50 [1] [nM] | IC50 [2] [nM] | SMILES
1 | 8 | 139 | O=C(NC1CCCN(c2ccncc2)C1)c1cc2ccc(-c3nccc(Nc4ccc(-c5cn[nH]c5)cc4)n3)cc2[nH]1 (stereo not drawn) [TDI01882, 6-(4-((4-(1H-pyrazol-4-yl)phenyl)-amino)-pyrimidin-2-yl)-N-(1-(pyridin-4-yl)piperidin-3-yl)-1H-indole-2-carboxamide]
2 | 26 | > 10000 | O=C(NC1CCN(c2ccncc2Cl)CC1)c1cc2ccc(-c3nccc(Nc4ccc(-c5cn[nH]c5)cc4)n3)cc2s1 [TDI01884, 6-(4-((4-(1H-pyrazol-4-yl)phenyl)-amino)-pyrimidin-2-yl)-N-(1-(3-chloropyridin-4-yl)piperidin-4-yl)benzo[b]-thiophene-2-carboxamide]
3 | 49 | > 10000 | Cn1c(C(=O)N2CC(F)(F)C2)cc2ccc(-c3nccc(Nc4ccc5[nH]ncc5c4)n3)cc21 [TDI01906, (6-(4-((1H-indazol-5-yl)amino)pyrimidin-2-yl)-1-methyl-1H-indol-2-yl)(3,3-difluoroazetidin-1-yl)methanone]
4 | 6 | > 10000 | COc1cc(Nc2ccnc(-c3ccc4cc(C(=O)N5CC(F)(F)C5)n(C)c4c3)n2)ccc1-c1cn[nH]c1 [TDI01910, (3,3-difluoroazetidin-1-yl)(6-(4-((3-methoxy-4-(1H-pyrazol-4-yl)phenyl)amino)pyrimidin-2-yl)-1-methyl-1H-indol-2-yl)methanone]
5 | 44 | > 10000 | COc1cc(Nc2ccnc(-c3ccc4cc(-c5nccs5)[nH]c4c3)n2)ccc1-c1cn[nH]c1 [TDI01912, N-(3-methoxy-4-(1H-pyrazol-4-yl)phenyl)-2-(2-(thiazol-2-yl)-1H-indol-6-yl)pyrimidin-4-amine]
6 | 18 | > 10000 | COc1cnc(-c2ccc3cc(C(=O)N4CC(F)(F)C4)n(C)c3c2)nc1Nc1ccc(-c2cn[nH]c2)cc1 [TDI01915, (6-(4-((4-(1H-pyrazol-4-yl)phenyl)amino)-5-methoxypyrimidin-2-yl)-1-methyl-1H-indol-2-yl)(3,3-difluoroazetidin-1-yl)methanone]
7 | 165 | > 10000 | Cn1c(C(=O)N2CC(F)(F)C2)cc2ccc(-c3nc(Nc4ccc(-c5cn[nH]c5)cc4)c4ccccc4n3)cc21 [TDI01918, (6-(4-((4-(1H-pyrazol-4-yl)phenyl)amino)quinazolin-2-yl)-1-methyl-1H-indol-2-yl)(3,3-difluoroazetidin-1-yl)methanone]
8 | 62 | 4060 | Cn1c(-c2nccs2)cc2ccc(-c3nccc(Nc4ccc(-c5cn[nH]c5)cc4)n3)cc21 [TDI01919]
9 | 200 | > 10000 | COCn1c(C(=O)N2CC(F)(F)C2)cc2ccc(-c3nccc(Nc4ccc(-c5cn[nH]c5)cc4)n3)cc21 [TDI01920, (6-(4-((4-(1H-pyrazol-4-yl)phenyl)amino)pyrimidin-2-yl)-1-(methoxymethyl)-1H-indol-2-yl)(3,3-difluoroazetidin-1-yl)methanone]
10 | 50 | > 10000 | C=Cn1c(C(=O)N2CC(F)(F)C2)cc2ccc(-c3nccc(Nc4ccc(-c5cn[nH]c5)cc4)n3)cc21 [TDI01923, (6-(4-((4-(1H-pyrazol-4-yl)phenyl)amino)pyrimidin-2-yl)-1-vinyl-1H-indol-2-yl)(3,3-difluoroazetidin-1-yl)methanone]
11 | 147 | > 10000 | c1cc(Nc2ccc(-c3cn[nH]c3)nc2)nc(-c2ccc3cc(-c4nccs4)[nH]c3c2)n1 [TDI01940, N-(6-(1H-pyrazol-4-yl)pyridin-3-yl)-2-(2-(thiazol-2-yl)-1H-indol-6-yl)pyrimidin-4-amine]
12 | 88 | > 10000 | Cn1c(C(=O)N2CC(F)(F)C2)cc2ccc(-c3nc(Nc4ccc(-c5cn[nH]c5)cc4)c4ccsc4n3)cc21 [TDI01947, (6-(4-((4-(1H-pyrazol-4-yl)phenyl)amino)thieno[2,3-d]pyrimidin-2-yl)-1-methyl-1H-indol-2-yl)(3,3-difluoroazetidin-1-yl)methanone]
13 | 103 | > 10000 | Cn1c(C(=O)N2CC(F)(F)C2)cc2ccc(-c3nc(Nc4ccc(-c5cn[nH]c5)cc4)c4cccn4n3)cc21 [TDI01948, (6-(4-((4-(1H-pyrazol-4-yl)phenyl)amino)pyrrolo[2,1-f][1,2,4]triazin-2-yl)-1-methyl-1H-indol-2-yl)(3,3-difluoroazetidin-1-yl)methanone]
14 | 59 | > 10000 | Cn1c(C(=O)N2CC(F)(F)C2)cc2ccc(-c3ncc(Cl)c(Nc4ccc(-c5cn[nH]c5)cc4)n3)cc21 [TDI01949, (6-(4-((4-(1H-pyrazol-4-yl)phenyl)amino)-5-chloropyrimidin-2-yl)-1-methyl-1H-indol-2-yl)(3,3-difluoroazetidin-1-yl)methanone]
15 | 27 | > 10000 | O=C(NC1CC(F)(F)C1)N1Cc2ccc(-c3nccc(Nc4ccc(-c5cn[nH]c5)cc4)n3)cc2C1 [TDI01951, 5-(4-((4-(1H-pyrazol-4-yl)phenyl)amino)pyrimidin-2-yl)-N-(3,3-difluorocyclobutyl) isoindoline-2-carboxamide]
16 | 33 | > 10000 | Cc1[nH]ncc1-c1ccc(Nc2ccnc(-c3ccc4cc(C(=O)N5CC(F)(F)C5)n(C)c4c3)n2)cc1 [TDI01955, (3,3-difluoroazetidin-1-yl)(1-methyl-6-(4-((4-(5-methyl-1H-pyrazol-4-yl)phenyl)amino)pyrimidin-2-yl)-1H-indol-2-yl)methanone]
17 | 131 | > 10000 | O=C(N1CCc2cc(-c3nccc(Nc4ccc(-c5cn[nH]c5)cc4)n3)ccc2C1)N1CC(F)(F)C1 [TDI01959, (6-(4-((4-(1H-pyrazol-4-yl)phenyl)amino)pyrimidin-2-yl)-3,4-dihydroisoquinolin-2(1H)-yl)(3,3-difluoroazetidin-1-yl)methanone]
18 | 50 | > 10000 | Cn1c(C(=O)N2CC(F)(F)C2)cc2ccc(-c3nc4c(c(Nc5ccc(-c6cn[nH]c6)cc5)n3)CCC4)cc21 [TDI01960, (6-(4-((4-(1H-pyrazol-4-yl)phenyl)amino)-6,7-dihydro-5H-cyclopenta[d]pyrimidin-2-yl)-1-methyl-1H-indol-2-yl)(3,3-difluoroazetidin-1-yl)methanone]
19 | 45 | > 10000 | O=C(C1CC(F)(F)C1)N1Cc2ccc(-c3nccc(Nc4ccc5[nH]ncc5c4)n3)cc2C1 [TDI01967, (5-(4-((1H-indazol-5-yl)amino)pyrimidin-2-yl)isoindolin-2-yl)(3,3-difluorocyclobutyl) methanone]
20 | 296 | > 10000 | CN1CCC[C@H]1C(=O)N1Cc2ccc(-c3nccc(Nc4ccc(-c5cn[nH]c5)cc4)n3)cc2C1 [TDI01968A, 5-(4-((4-(1H-pyrazol-4-yl)phenyl)amino)pyrimidin-2-yl)-2-(methyl-L-prolyl)isoindoline]
21 | 52 | > 10000 | CN1CCc2nc(C(=O)N3Cc4ccc(-c5nccc(Nc6ccc(-c7cn[nH]c7)cc6)n5)cc4C3)sc2C1 [TDI01973, (5-(4-((4-(1H-pyrazol-4-yl)phenyl)amino)pyrimidin-2-yl)isoindolin-2-yl)(5-methyl-4,5,6,7-tetrahydrothiazolo[5,4-c]pyridin-2-yl)methanone]
22 | 186 | > 10000 | CN(C)C(=O)N1Cc2ccc(-c3nc(Nc4ccc(-c5cn[nH]c5)cc4)c4occc4n3)cc2C1 [TDI01974, 5-(4-((4-(1H-pyrazol-4-yl)phenyl)amino)furo[3,2-d]pyrimidin-2-yl)-N,N-dimethylisoindoline-2-carboxamide]
23 | 137 | > 10000 | O=C(C1CC(F)(F)C1)N1Cc2ccc(-c3nccc(Nc4ccc(-c5cn[nH]c5)cn4)n3)cc2C1 [TDI01979, (5-(4-((5-(1H-pyrazol-4-yl)pyridin-2-yl)amino)pyrimidin-2-yl)isoindolin-2-yl)(3,3-difluorocyclobutyl)methanone]
24 | 385 | > 10000 | CC(O)C(=O)N1Cc2ccc(-c3nccc(Nc4ccc(-c5cn[nH]c5)cc4)n3)cc2C1 (stereo not drawn) [TDI01989, 1-(5-(4-((4-(1H-pyrazol-4-yl)phenyl)amino)pyrimidin-2-yl)isoindolin-2-yl)-2-hydroxypropan-1-one]
